What is called pIC50 is the IC50 on a negative log10 scale, so that one unit is a factor of ten.

This is an account of results in patent US9393232B2 (BeiGene, Ltd., priority 2013, dated 2016).

pIC50: −log10 of the molar value.

The first assay deals with Recombinant human BRD4(1-477) (Homo sapiens (Human), UniProt O60885). The assay can be described thus: BRD4 TR-FRET biochemical IC50 assay. The class given is binding. The following applies: BRD4 IC50, TR-FRET, tetra-acetylated histone peptide. Background: Time-resolved FRET reads energy transfer from a long-lived donor to a nearby acceptor.
`Cc1noc(C)c1-c1ccc2c(c1)C(O)(c1ccsc1)C(=O)N2` (single isomer, unassigned) [Compound 4.1a, 5-(3,5-Dimethylisoxazol-4-yl)-3-hydroxy-3-(thiophen-3-yl)indolin-2-one]: the negative-log IC50 (pIC50) is 5.31.

Still in this assay, the particulars now being: TR-FRET, tetra-acetylated histone peptide; read-out: BRD4 IC50.
Consider `COC(=O)[C@H](Cc1cnc[nH]1)NC1(c2ccccc2)C(=O)Nc2ccc(-c3c(C)noc3C)cc21` (stereo partly drawn) [Compound 2.57, (2S)-Methyl 2-(5-(3,5-dimethylisoxazol-4-yl)-2-oxo-3-phenylindolin-3-ylamino)-3-(1h-imidazol-5-yl)propanoate], for which the negative-log IC50 (pIC50) is 7.05.
Still for that read-out and setting: for `Cc1noc(C)c1-c1ccc2c(c1)C(N)(c1ccsc1)C(=O)N2` (stereo not shown) [Compound 4.4, 3-AMINO-5-(3,5-DIMETHYLISOXAZOL-4-YL)-3-(THIOPHEN-3-YL)INDOLIN-2-ONE] the value was 6.40; for `Cc1noc(C)c1-c1ccc2c(c1)C(c1ccccc1)(N1CCC[C@H](NC(=O)OC(C)(C)C)C1)C(=O)N2` (stereo partly shown) [Compound 2.44, Tert-butyl (3s)-1-(5-(3,5-dimethylisoxazol-4-yl)-2-oxo-3-phenylindolin-3-yl)piperidin-3-ylcarbamate], 5.96; for `Cc1noc(C)c1-c1ccc2c(c1)C(N[C@@H](CO)C(C)C)(c1ccccc1)C(=O)N2` (single isomer, unassigned) [Compound 2.11a], 5.44.
On the same count and under the same terms, for `Cc1noc(C)c1-c1ccc2c(c1)C(O)(C(C)(C)C)C(=O)N2` (stereo not shown) [Compound 1.26, 3-tert-butyl-5-(3,5-dimethylisoxazol-4-yl)-3-hydroxyindolin-2-one] the value was 5.49.
Still for that read-out and setting: for `Cc1noc(C)c1-c1ccc2c(c1)C(N[C@H](CO)C(C)C)(c1ccccc1)C(=O)N2` (single isomer, unassigned) [Compound 2.12b] the value was 5.47.
Consider `C#CC1(O)C(=O)Nc2ccc(-c3c(C)noc3C)cc21` (stereo not shown) [Compound 1.21, 5-(3,5-dimethylisoxazol-4-yl)-3-ethynyl-3-hydroxyindolin-2-one], for which the pIC50 is 5.92.
The same measure, in the same setting: for `Cc1noc(C)c1-c1ccc2c(c1)[C@@](N)(C1CCCCC1)C(=O)N2` [Compound 2.37a, (S)-3-amino-3-cyclohexyl-5-(3,5-dimethylisoxazol-4-yl)indolin-2-one] the value was 7.27.
Same read-out and setting: to `Cc1noc(C)c1-c1ccc2c(c1)C(NC[C@@H](C)O)(c1ccccc1)C(=O)N2` (single isomer, unassigned) [Compound 2.13a] belongs 6.15.
Still for that read-out and setting: to `Cc1noc(C)c1-c1ccc2c(c1)C(c1ccccc1)(N1CCC[C@@H](N)C1)C(=O)N2` (stereo partly drawn) [Compound 2.45, 3-((R)-3-aminopiperidin-1-yl)-5-(3,5-dimethylisoxazol-4-yl)-3-phenylindolin-2-one] belongs 7.59; to `COC(=O)[C@@H](Cc1cnc[nH]1)NC1(c2ccccc2)C(=O)Nc2ccc(-c3c(C)noc3C)cc21` (stereo partly drawn) [Compound 2.56, (2R)-Methyl 2-(5-(3,5-dimethylisoxazol-4-yl)-2-oxo-3-phenylindolin-3-ylamino)-3-(1h-imidazol-5-yl)propanoate], 6.59.
Turning to `Cc1noc(C)c1-c1ccc2c(c1)C(N[C@H](CO)Cc1cnc[nH]1)(c1ccccc1)C(=O)N2` (single isomer, unassigned) [Compound 2.57b, 5-(3,5-Dimethylisoxazol-4-yl)-3-((s)-1-hydroxy-3-(1h-imidazol-5-yl)propan-2-ylamino)-3-phenylindolin-2-one], the pIC50 was 7.39.
Still for that read-out and setting: to `CC(=O)OC1(c2ccccc2)C(=O)Nc2ccc(-c3c(C)noc3C)cc21` (stereo not shown) [Compound 1.34, 5-(3,5-Dimethylisoxazol-4-yl)-2-oxo-3-phenylindolin-3-yl acetate] belongs 6.82.
The same measure, in the same setting: to `Cc1noc(C)c1-c1ccc2c(c1)C(O)(c1ccccc1)C(=O)N2` (single isomer, unassigned) [Compound 1.1b, 5-(3,5-dimethylisoxazol-4-yl)-3-hydroxy-3-phenylindolin-2-one] belongs 5.15; to `Cc1noc(C)c1-c1ccc2c(c1)C(c1ccccc1)(N1CCN(CCO)CC1)C(=O)N2` (stereo not shown) [Compound 2.48, 5-(3,5-Dimethylisoxazol-4-yl)-3-(4-(2-hydroxyethyl)piperazin-1-yl)-3-phenylindolin-2-one], 7.10; to `Cc1noc(C)c1-c1ccc2c(c1)C(NC[C@H](C)O)(c1ccccc1)C(=O)N2` (single isomer, unassigned) [Compound 2.14b], 6.21.
The same measure, in the same setting: for `Cc1noc(C)c1-c1ccc2c(c1)C(C1CCCCC1)(N1CC(O)C1)C(=O)N2` (stereo not shown) [Compound 2.33, 3-cyclohexyl-5-(3,5-dimethylisoxazol-4-yl)-3-(3-hydroxyazetidin-1-yl)indolin-2-one] the value was 6.92.
Take `Cc1noc(C)c1-c1ccc2c(c1)C(C1CCCCC1)(N1CCCC(O)C1)C(=O)N2` (stereo not shown) [Compound 2.32, 3-cyclohexyl-5-(3,5-dimethylisoxazol-4-yl)-3-(3-hydroxypiperidin-1-yl)indolin-2-one]: the pIC50 was 7.22.
`CC(=O)CC1(O)C(=O)Nc2ccc(-c3c(C)noc3C)cc21` (stereo not shown) [Compound 4.2, 5-(3,5-dimethylisoxazol-4-yl)-3-hydroxy-3-(2-oxopropyl)indolin-2-one]: the pIC50 was 6.17.
Same read-out and setting: for `Cc1noc(C)c1-c1ccc2c(c1)C(c1ccccc1)(N1CCC[C@@H]1CO)C(=O)N2` (stereo partly shown) [Compound 2.55, 5-(3,5-Dimethylisoxazol-4-yl)-3-((r)-2-(hydroxymethyl)pyrrolidin-1-yl)-3-phenylindolin-2-one] the value was 6.96; for `COC(=O)[C@@H]1C[C@@H](O)CN1C1(c2ccccc2)C(=O)Nc2ccc(-c3c(C)noc3C)cc21` (single isomer, unassigned) [Compound 2.50b], 6.07.
Same read-out and setting: for `Cc1noc(C)c1-c1ccc2c(c1)C(c1ccccc1)(N1C[C@@H](O)C[C@H]1CO)C(=O)N2` (single isomer, unassigned) [Compound 2.51b] the value was 7.17; for `Cc1noc(C)c1-c1ccc2c(c1)C(N)(c1ccc(F)cc1)C(=O)N2` (single isomer, unassigned) [Compound 2.59a, 3-amino-5-(3,5-dimethylisoxazol-4-yl)-3-(4-fluorophenyl)indolin-2-one], 5.39.
As to `Cc1noc(C)c1-c1ccc2c(c1)C(NCCO)(c1ccsc1)C(=O)N2` (stereo not shown) [Compound 4.3, 5-(3,5-Dimethylisoxazol-4-yl)-3-(2-hydroxyethylamino)-3-(thiophen-3-yl)indolin-2-one], the pIC50 was 7.31.
Still for that read-out and setting: for `Cc1noc(C)c1-c1ccc2c(c1)C(O)(C(C)C)C(=O)N2` (stereo not shown) [Compound 1.27, 5-(3,5-dimethylisoxazol-4-yl)-3-hydroxy-3-isopropylindolin-2-one] the value was 5.55; for `CCOC(=O)CN1CCN(C2(c3ccccc3)C(=O)Nc3ccc(-c4c(C)noc4C)cc32)CC1` (stereo not shown) [Compound 2.47, Ethyl 2-(4-(5-(3,5-dimethylisoxazol-4-yl)-2-oxo-3-phenylindolin-3-yl)piperazin-1-yl)acetate], 7.27; for `Cc1noc(C)c1-c1ccc2c(c1)C(N[C@@H](CO)c1ccccc1)(c1ccccc1)C(=O)N2` (single isomer, unassigned) [Compound 2.7b], 6.09.
Same read-out and setting: to `Cc1noc(C)c1-c1ccc2c(c1)C(N)(C1CCCCC1)C(=O)N2` (stereo not shown) [Compound 2.37, 3-amino-3-cyclohexyl-5-(3,5-dimethylisoxazol-4-yl)indolin-2-one] belongs 7.03; to `Cc1noc(C)c1-c1ccc2c(c1)C(O)(c1cccc3ccccc13)C(=O)N2` (stereo not shown) [Compound 1.11, 5-(3,5-dimethylisoxazol-4-yl)-3-hydroxy-3-(naphthalen-1-yl)indolin-2-one], 5.60; to `CCC1(O)C(=O)Nc2ccc(-c3c(C)noc3C)cc21` (stereo not shown) [Compound 1.20, 5-(3,5-dimethylisoxazol-4-yl)-3-ethyl-3-hydroxyindolin-2-one], 5.64.
With `Cc1noc(C)c1-c1ccc2c(c1)C(N[C@H](CO)c1ccccc1)(c1ccccc1)C(=O)N2` (single isomer, unassigned) [Compound 2.8a], the pIC50 is 6.29.
On the same count and under the same terms, to `Cc1noc(C)c1-c1ccc2c(c1)C(C1CCCCC1)(N1CCC[C@@H](O)C1)C(=O)N2` (stereo partly drawn) [Compound 2.30, 3-cyclohexyl-5-(3,5-dimethylisoxazol-4-yl)-3-((R)-3-hydroxypiperidin-1-yl)indolin-2-one] belongs 7.21.
On the same count and under the same terms, to `Cc1noc(C)c1-c1ccc2c(c1)C(c1ccccc1)(N1CCN(CCCO)CC1)C(=O)N2` (stereo not shown) [Compound 2.49, 5-(3,5-Dimethylisoxazol-4-yl)-3-(4-(3-hydroxypropyl)piperazin-1-yl)-3-phenylindolin-2-one] belongs 7.08.
The same measure, in the same setting: for `Cc1noc(C)c1-c1ccc2c(c1)C(c1ccsc1)(N1CCC(O)CC1)C(=O)N2` (stereo not shown) [Compound 4.5, 5-(3,5-DIMETHYLISOXAZOL-4-YL)-3-(4-HYDROXYPIPERIDIN-1-YL)-3-(THIOPHEN-3-YL)INDOLIN-2-ONE] the value was 7.60; for `COc1ccc(C2(O)C(=O)Nc3ccc(-c4c(C)noc4C)cc32)cc1OC` (stereo not shown) [Compound 1.10, 3-(3,4-dimethoxyphenyl)-5-(3,5-dimethylisoxazol-4-yl)-3-hydroxyindolin-2-one], 5.89.
Consider `Cc1noc(C)c1-c1ccc2c(c1)C(N[C@H](CO)Cc1cnc[nH]1)(c1ccccc1)C(=O)N2` (single isomer, unassigned) [Compound 2.57a, 5-(3,5-Dimethylisoxazol-4-yl)-3-((s)-1-hydroxy-3-(1h-imidazol-5-yl)propan-2-ylamino)-3-phenylindolin-2-one], for which the pIC50 was 6.39.
Same read-out and setting: to `Cc1noc(C)c1-c1ccc2c(c1)C(N[C@H](CO)c1ccccc1)(c1ccccc1)C(=O)N2` (single isomer, unassigned) [Compound 2.8b] belongs 5.66; to `Cc1noc(C)c1-c1ccc2c(c1)C(N)(C1CCCCC1)C(=O)N2` (single isomer, unassigned) [Compound 2.37b, 3-Amino-3-cyclohexyl-5-(3,5-dimethylisoxazol-4-yl)indolin-2-one], 5.96.
For the compound `Cc1noc(C)c1-c1ccc2c(c1)C(N)(c1ccc(F)cc1)C(=O)N2` (single isomer, unassigned) [Compound 2.59b, 3-amino-5-(3,5-dimethylisoxazol-4-yl)-3-(4-fluorophenyl)indolin-2-one], the pIC50 is 7.44.
